Assay results from US10253002B2, “Compounds and methods of treating infections” (Neoculi Pty Ltd., priority 2013, dated 2019).
Values joined by “and” are separate entries in the source; they are usually repeats but may differ in a detail not shown here. Identical values can stand only once.

Assays:
[1] = Release from Formulation B, Franz diffusion cells; assay type: physicochemical; conditions: absolute ethanol receptor, 32±1° C., up to 24 hours
Protocol: Franz diffusion cells were utilized to quantify the release rate of NCL 812 and NCL099 from its topical formulations. Five milliliters of absolute ethanol, which was chosen as the desired release medium, was loaded into the receptor chamber. Temperature of the receptor fluid was kept constant, at 32±1° C. using a water jacket. Acetyl cellulose membranes, with pore size of 0.45 μm (Pall Corporation) was selected and placed between donor and receptor chamber. Followed by that, a number of test samples (Formulation B) was loaded into the donor chamber. One milliliter of receptor fluid was collected at regular time intervals of 0.25, 0.50, 0.75, 1, 2, 3, 4, 5, 6, 7, 8 and 24 hours through the sampling port. One milliliter of fresh absolute ethanol was immediately returned to the receptor chamber. UV-HPLC was utilized to analyse the content of the receptor fluids attained.

VRE isolates = test: MBC (CLSI methodology), Example 7; assay type: cell-based, Enterococcus spp.; design: key: M = many bacteria growing on the plate (too many to count)
[2] = system: D39 cell membrane ultra-structure; test: Transmission electron microscopy morphometric analysis; assay type: cell-based, Streptococcus pneumoniae
Protocol: Morphological appearance and morphometric analysis of the cell membrane was determined using transmission electron microscopy (TEM). Bacterial suspensions and 10 mL cultures of […] were prepared as before. […] Critical time points for TEM work were determined by analysing trends in the growth curves produced from the kill kinetics studies. […] Samples were fixed using modified protocols defined by a previous study examining cell wall ultrastructure of S. pneumoniae ([…]. et al. 2005. Infect Immun 73:4653-4667). […] The samples were then embedded in fresh LR White resin and incubated at 50° C. for 48 h. Sections were cut to 1 μm using a glass knife, stained with Toluidene Blue and viewed under a light microcrope at 400× to identify the presence of stained pneumococci. At least four ultra-thin sections were then cut to 90 nm using a diamond knife and placed on matrix grids, one section per grid. […] Stained sections were then placed on grids and viewed between 25000× and 130000× on a Philips CM100 Transmission Electron Microscope. Images were obtained at 130000× magnification and analysed using analySIS [Olympus Soft Imaging Systems].

VRE = test: Kill kinetics assay, Example 7; assay type: cell-based, Enterococcus spp.
Protocol: MRSA/VRE were grown overnight on Columbia SBA at 37° C. A few colonies of bacteria were then suspended in CAMHB and adjusted to an optical density of 0.08 to 0.10. The bacterial suspension was diluted 1:10. […] The tubes were incubated at 37° C. In order to determine the number of viable bacteria present at various time points, a 100 μL aliquot was removed from each tube and diluted in normal saline. Then, 100 μL of each dilution was spread onto colony count agar, in duplicate, and incubated for 48 h at 37° C. After 24 h the numbers of colonies present on each plate were counted and therefore the number of viable bacteria present in the original suspension enumerated. Plates were re-checked after 48 hours.

[3] = Visual analysis of solubility in diluents and media, Example 5; assay type: physicochemical
[4] = system: lipid synthesis in S. aureus ATCC 29213; test: Macromolecular synthesis assay: lipid synthesis ([3H] glycerol); assay type: cell-based, Staphylococcus aureus; conditions: at the MIC
Protocol: Cells were grown at 35° C. overnight on Trypticase Soy agar. A colony from the plate was used to inoculate 10 ml of Mueller Hinton broth II (MHBII), and the culture was grown to early exponential growth phase (OD600==0.2 to 0.3) while incubating in a shaker at 35° C. and 200 rpm.
Bacterial cells were grown to early exponential growth phase in MHBII broth and added to 1.5 mL eppendorf tubes (in triplicate) containing various concentrations of test compound or control antibiotics as described above. Following a 5 min incubation at room temperature, [^3H] glycerol was added at 0.5 μCi per reaction.
Reactions were allowed to proceed at room temperature for 15 min and then stopped through the addition of 375 μL chloroform/methanol (1:2) followed by vortexing for 20 seconds after each addition. Chloroform (125 μL) was then added to each reaction, vortexed, followed by the addition of 125 μL dH2O and vortexing. Reactions were centrifuged at 13,000 rpm for 10 min, and then 150 μL of the organic phase was transferred to a scintillation vial and allowed to dry in a fume hood for at least 1 hr. Samples were then counted via liquid scintillation counting.

[5] = Solubility in DMSO and CAMHB, Example 4
Description: Test antimicrobials were selected on the basis of solubility and antimicrobial activity from preliminary studies.

## N=C(N/N=C/c1ccc(Cl)cc1)N/N=C/c1ccc(Cl)cc1 [NCL812, 1,3-bis[(E)-(4-chlorophenyl)methyleneamino]guanidine]
[1]
  release profile from Formulation B: acceptable release profile
VRE isolates; VRE 12c, NCL812 2 μg/ml
  NCL812 MBC: number of bacteria growing after 24 hours per ml of sample: 0 CFU/ml
VRE isolates; VRE 12c, NCL812 16 μg/ml
  NCL812 MBC: number of bacteria growing after 24 hours per ml of sample: M
VRE isolates; VRE 12c, NCL812 32 μg/ml
  NCL812 MBC: number of bacteria growing after 24 hours per ml of sample: M
VRE isolates; VRE 12c, NCL812 64 μg/ml
  NCL812 MBC: number of bacteria growing after 24 hours per ml of sample: M
VRE isolates; VRE 12c, NCL812 […]
  NCL812 MBC: number of bacteria growing after 24 hours per ml of sample: M
VRE isolates; VRE 14t, NCL812 4 μg/ml
  NCL812 MBC: number of bacteria growing after 24 hours per ml of sample: 0 CFU/ml
VRE isolates; VRE 14t, NCL812 […]
  NCL812 MBC: number of bacteria growing after 24 hours per ml of sample: M
VRE isolates; VRE 16c(dc), NCL812 16 μg/ml
  NCL812 MBC: number of bacteria growing after 24 hours per ml of sample: M
VRE isolates; VRE 16c(dc), NCL812 32 μg/ml
  NCL812 MBC: number of bacteria growing after 24 hours per ml of sample: M
VRE isolates; VRE 16c(dc), NCL812 64 μg/ml
  NCL812 MBC: number of bacteria growing after 24 hours per ml of sample: M
VRE isolates; VRE 16c(dc), NCL812 […]
  NCL812 MBC: number of bacteria growing after 24 hours per ml of sample: M
VRE isolates; VRE 16c, NCL812 4 μg/ml
  NCL812 MBC: number of bacteria growing after 24 hours per ml of sample: 820 CFU/ml and 790 CFU/ml
VRE isolates; VRE 16c, NCL812 8 μg/ml
  NCL812 MBC: number of bacteria growing after 24 hours per ml of sample: 980 CFU/ml and 890 CFU/ml
VRE isolates; VRE 16c, NCL812 16 μg/ml
  NCL812 MBC: number of bacteria growing after 24 hours per ml of sample: M
VRE isolates; VRE 16c, NCL812 32 μg/ml
  NCL812 MBC: number of bacteria growing after 24 hours per ml of sample: M
VRE isolates; VRE 16c, NCL812 64 μg/ml
  NCL812 MBC: number of bacteria growing after 24 hours per ml of sample: M
VRE isolates; VRE 16c, NCL812 […]
  NCL812 MBC: number of bacteria growing after 24 hours per ml of sample: M
VRE isolates; VRE 19t, NCL812 4 μg/ml
  NCL812 MBC: number of bacteria growing after 24 hours per ml of sample: 0 CFU/ml
VRE isolates; VRE 19t, NCL812 8 μg/ml
  NCL812 MBC: number of bacteria growing after 24 hours per ml of sample: 0 CFU/ml
VRE isolates; VRE 19t, NCL812 […]
  NCL812 MBC: number of bacteria growing after 24 hours per ml of sample: M
VRE isolates; VRE 23c, NCL812 2 μg/ml
  NCL812 MBC: number of bacteria growing after 24 hours per ml of sample: 0 CFU/ml
VRE isolates; VRE 23c, NCL812 64 μg/ml
  NCL812 MBC: number of bacteria growing after 24 hours per ml of sample: M
VRE isolates; VRE 23c, NCL812 […]
  NCL812 MBC: number of bacteria growing after 24 hours per ml of sample: M
VRE isolates; VRE 25c, NCL812 8 μg/ml
  NCL812 MBC: number of bacteria growing after 24 hours per ml of sample: M
VRE isolates; VRE 25c, NCL812 16 μg/ml
  NCL812 MBC: number of bacteria growing after 24 hours per ml of sample: M
VRE isolates; VRE 25c, NCL812 32 μg/ml
  NCL812 MBC: number of bacteria growing after 24 hours per ml of sample: M
VRE isolates; VRE 25c, NCL812 64 μg/ml
  NCL812 MBC: number of bacteria growing after 24 hours per ml of sample: M
VRE isolates; VRE 25c, NCL812 […]
  NCL812 MBC: number of bacteria growing after 24 hours per ml of sample: M
VRE isolates; VRE 26c(dc), NCL812 8 μg/ml
  NCL812 MBC: number of bacteria growing after 24 hours per ml of sample: 4000 CFU/ml and 3500 CFU/ml
VRE isolates; VRE 26c(dc), NCL812 16 μg/ml
  NCL812 MBC: number of bacteria growing after 24 hours per ml of sample: M
VRE isolates; VRE 26c(dc), NCL812 32 μg/ml
  NCL812 MBC: number of bacteria growing after 24 hours per ml of sample: M
VRE isolates; VRE 26c(dc), NCL812 64 μg/ml
  NCL812 MBC: number of bacteria growing after 24 hours per ml of sample: M
VRE isolates; VRE 26c(dc), NCL812 […]
  NCL812 MBC: number of bacteria growing after 24 hours per ml of sample: M
VRE isolates; VRE 35t, NCL812 2 μg/ml
  NCL812 MBC: number of bacteria growing after 24 hours per ml of sample: 0 CFU/ml
VRE isolates; VRE 35t, NCL812 4 μg/ml
  NCL812 MBC: number of bacteria growing after 24 hours per ml of sample: 0 CFU/ml
VRE isolates; VRE 35t, NCL812 8 μg/ml
  NCL812 MBC: number of bacteria growing after 24 hours per ml of sample: 0 CFU/ml
VRE isolates; VRE 37c, NCL812 4 μg/ml
  NCL812 MBC: number of bacteria growing after 24 hours per ml of sample: 100 CFU/ml and 50 CFU/ml
VRE isolates; VRE 37c, NCL812 64 μg/ml
  NCL812 MBC: number of bacteria growing after 24 hours per ml of sample: M
VRE isolates; VRE 37c, NCL812 […]
  NCL812 MBC: number of bacteria growing after 24 hours per ml of sample: M
[2]; D39 exposed to 16 μg/mL NCL812 for 6 h, untreated 4.35±0.24
  cell membrane thickness: 6.43±0.29 nm
[2]; D39 treated with 16 μg/mL NCL812 for 6 h, untreated 3.91±0.14
  width of periplasmic space: 4.54±0.096 nm
[2]; D39 treated with 16 μg/ml NCL812 for 6 h, n = 11, growth control 3.91 ± 0.14 nm
  Periplasmic space, Mean ± SEM: 4.54 ± 0.096 nm,
[2]; D39 treated with 16 μg/ml NCL812 for 6 h, n = 13, growth control 4.35 ± 0.24 nm
  Cell membrane, Mean ± SEM: 6.43 ± 0.29 nm,
VRE; at 4 h
  reduction in the viable count compared to the control: ~2 log10
VRE; at 8 h
  reduction in the viable count compared to the control: ~2.5 log10
VRE; at 24 h
  growth of bacteria versus control: no longer as significantly reduced in comparison to the control
[3]; Diluent CAMHB
  Visual analysis of solubility: Turbid
[3]; Diluent DMSO
  Visual analysis of solubility: Transparent
[3]; Diluent PBS
  Visual analysis of solubility: Precipitate
[3]; Media 4% LHB:CAMHB
  Visual analysis of solubility: Turbid
[3]; Media 10% horse serum-supplemented broth
  Visual analysis of solubility: Precipitate
[4]
  inhibition of lipid synthesis: approximately 90%
[5]; cation-adjusted Mueller-Hinton II broth
  Solubility CAMHB: Cloudy precipitates
[5]; dimethyl sulfoxide
  Solubility DMSO: Good
